These results are taken from patent US11168086B2, “Methods of synthesizing pyrazine compounds” (Hoffmann-La Roche Inc., priority 2015, dated 2021).

Usually EC50 stands for the concentration giving half of the maximal effect. A low value points to an effect from little substance.

This assay has as its system HBV. As to the kind of experiment: HBV inhibition assay: anti-HBV activity in vitro in HepG2.2.15 cells (extracellular HBV DNA by qPCR). It counts as cell-based. As to conditions: Hepatitis B virus, 120 h, five days after compound treatment, extracellular HBV DNA in culture supernatant by qPCR, concentration at which HBV replication is inhibited by 50%. The method, boiled down: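 HepG2.2.15 cells (stably carrying HBV genome) treated with half-log serially diluted compounds at 0.5% DMSO final for five days. Extracellular HBV DNA in supernatant quantified by qPCR after Proteinase K digestion; EC50 is concentration giving 50% inhibition of replication.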
(Quantitative PCR measures a nucleic acid by following its amplification.)
The compound `C[C@H]1Cn2ncc(N3CC(COc4ncccn4)CC3=O)c2CN1C(=O)Nc1cc(F)c(F)c(F)c1` (stereo partly drawn) [Example 267, (6S)-6-methyl-3-[2-oxo-4-(pyrimidin-2-yloxymethyl)pyrrolidin-1-yl]-N-(3,4,5-trifluorophenyl)-6,7-dihydro-4H-pyrazolo[1,5-a]pyrazine-5-carboxamide] showed an EC50 of 39 nM. Regarding `C[C@H]1Cn2ncc(N3CC(Cn4cccn4)CC3=O)c2CN1C(=O)Nc1cc(F)c(F)c(F)c1` (stereo partly drawn) [Example 268, (6S)-6-methyl-3-[2-oxo-4-(pyrazol-1-ylmethyl)pyrrolidin-1-yl]-N-(3,4,5-trifluorophenyl)-6,7-dihydro-4H-pyrazolo[1,5-a]pyrazine-5-carboxamide], the response was half-maximal at 96 nM (EC50). `C[C@H]1Cn2ncc(N3CC(Nc4ncccn4)CC3=O)c2CN1C(=O)Nc1cc(F)c(F)c(F)c1` (stereo partly drawn) [Example 269, (6S)-6-methyl-3-[2-oxo-4-(pyrimidin-2-ylamino)pyrrolidin-1-yl]-N-(3,4,5-trifluorophenyl)-6,7-dihydro-4H-pyrazolo[1,5-a]pyrazine-5-carboxamide]: the EC50 was found to be 12 nM. This EC50 is about 8-fold lower than that of the compound before.

`C[C@H]1Cn2ncc(N3CC(Nc4ncncc4F)CC3=O)c2CN1C(=O)Nc1cc(F)c(F)c(F)c1` (stereo partly drawn) [Example 270, (6S)-3-[4-[(5-fluoropyrimidin-4-yl)amino]-2-oxo-pyrrolidin-1-yl]-6-methyl-N-(3,4,5-trifluorophenyl)-6,7-dihydro-4H-pyrazolo[1,5-a]pyrazine-5-carboxamide]: the 50% effective concentration (EC50) is 17 nM. With `C[C@H]1Cn2ncc(N3CCOCC3=O)c2CN1C(=O)Nc1cc(F)c(F)c(C(F)F)c1` [Example 271, (6S)—N-[3-(difluoromethyl)-4,5-difluoro-phenyl]-6-methyl-3-(3-oxomorpholin-4-yl)-6,7-dihydro-4H-pyrazolo[1,5-a]pyrazine-5-carboxamide], the EC50 worked out at 38 nM. Compared with the last compound, the EC50 is about 2.2-fold higher. The value for `C[C@H]1Cn2ncc(N3CC(C)(C)OC3=O)c2CN1C(=O)Nc1ccnc(C(F)F)c1` [Example 272, (6S)—N-[2-(difluoromethyl)-4-pyridyl]-3-(5,5-dimethyl-2-oxo-oxazolidin-3-yl)-6-methyl-6,7-dihydro-4H-pyrazolo[1,5-a]pyrazine-5-carboxamide] was 104 nM; that for `C[C@H]1[C@H](C)n2ncc(N3CCNC3=O)c2CN1C(=O)Nc1cc(F)c(F)c(F)c1` [Example 273, (6S,7S)-6,7-dimethyl-3-(2-oxoimidazolidin-1-yl)-N-(3,4,5-trifluorophenyl)-6,7-dihydro-4H-pyrazolo[1,5-a]pyrazine-5-carboxamide] was 39 nM; that for `C[C@H]1[C@H](C)n2ncc(N3CCOCC3=O)c2CN1C(=O)Nc1cc(F)c(F)c(F)c1` [Example 274, (6S,7S)-6,7-dimethyl-3-(3-oxomorpholin-4-yl)-N-(3,4,5-trifluorophenyl)-6,7-dihydro-4H-pyrazolo[1,5-a]pyrazine-5-carboxamide] was 40 nM. The value for `C[C@H]1Cn2ncc(N3CN(C(=O)c4ccccc4)CC3=O)c2CN1C(=O)Nc1cc(F)c(F)c(F)c1` [Example 275, (6S)-3-(3-benzoyl-5-oxo-imidazolidin-1-yl)-6-methyl-N-(3,4,5-trifluorophenyl)-6,7-dihydro-4H-pyrazolo[1,5-a]pyrazine-5-carboxamide] was 64 nM.

`C[C@H]1Cn2ncc(N3CC(C)(C)OC3=O)c2CN1C(=O)Nc1cc(F)c(F)c(C(F)F)c1` [Example 276, (6S)—N-[3-(difluoromethyl)-4,5-difluoro-phenyl]-3-(5,5-dimethyl-2-oxo-oxazolidin-3-yl)-6-methyl-6,7-dihydro-4H-pyrazolo[1,5-a]pyrazine-5-carboxamide] showed an EC50 of 6 nM. Regarding `CC1COC(=O)N(c2cnn3c2CN(C(=O)Nc2cc(F)c(F)c(F)c2)[C@@H](C)C3)C1` (stereo partly drawn) [Example 278, (6S)-6-methyl-3-(5-methyl-2-oxo-1,3-oxazinan-3-yl)-N-(3,4,5-trifluorophenyl)-6,7-dihydro-4H-pyrazolo[1,5-a]pyrazine-5-carboxamide], the 50% effective concentration (EC50) came out at 27 nM. `C[C@H]1Cn2ncc(N3CN(c4ncccn4)CC3=O)c2CN1C(=O)Nc1cc(F)c(F)c(F)c1` [Example 281, (6S)-6-methyl-3-(5-oxo-3-pyrimidin-2-yl-imidazolidin-1-yl)-N-(3,4,5-trifluorophenyl)-6,7-dihydro-4H-pyrazolo[1,5-a]pyrazine-5-carboxamide] came in with an EC50 of 52 nM.

`C[C@H]1Cn2ncc(N3CC(c4nnco4)CC3=O)c2CN1C(=O)Nc1cc(F)c(F)c(F)c1` (stereo partly drawn) [Example 282, (6S)-6-methyl-3-[4-(1,3,4-oxadiazol-2-yl)-2-oxo-pyrrolidin-1-yl]-N-(3,4,5-trifluorophenyl)-6,7-dihydro-4H-pyrazolo[1,5-a]pyrazine-5-carboxamide] gave an EC50 of 57 nM. `Cc1nnc(C2CC(=O)N(c3cnn4c3CN(C(=O)Nc3cc(F)c(F)c(F)c3)[C@@H](C)C4)C2)o1` (stereo partly drawn) [Example 283, (6S)-6-methyl-3-[4-(5-methyl-1,3,4-oxadiazol-2-yl)-2-oxo-pyrrolidin-1-yl]-N-(3,4,5-trifluorophenyl)-6,7-dihydro-4H-pyrazolo[1,5-a]pyrazine-5-carboxamide] gave an EC50 of 47 nM. Take `Cc1noc(C2CC(=O)N(c3cnn4c3CN(C(=O)Nc3cc(F)c(F)c(F)c3)[C@@H](C)C4)C2)n1` (stereo partly drawn) [Example 284, (6S)-6-methyl-3-[4-(3-methyl-1,2,4-oxadiazol-5-yl)-2-oxo-pyrrolidin-1-yl]-N-(3,4,5-trifluorophenyl)-6,7-dihydro-4H-pyrazolo[1,5-a]pyrazine-5-carboxamide]: the midpoint of the response, the EC50, lay at 10 nM.

Take `Cc1nc(C2CC(=O)N(c3cnn4c3CN(C(=O)Nc3cc(F)c(F)c(F)c3)[C@@H](C)C4)C2)no1` (stereo partly drawn) [Example 285, (6S)-6-methyl-3-[4-(5-methyl-1,2,4-oxadiazol-3-yl)-2-oxo-pyrrolidin-1-yl]-N-(3,4,5-trifluorophenyl)-6,7-dihydro-4H-pyrazolo[1,5-a]pyrazine-5-carboxamide]: the 50% effective concentration (EC50) stood at 7 nM. The value for `C[C@H]1Cn2ncc(N3CC(c4nnc(C(F)(F)F)o4)CC3=O)c2CN1C(=O)Nc1cc(F)c(F)c(F)c1` (stereo partly drawn) [Example 286, (6S)-6-methyl-3-[2-oxo-4-[5-(trifluoromethyl)-1,3,4-oxadiazol-2-yl]pyrrolidin-1-yl]-N-(3,4,5-trifluorophenyl)-6,7-dihydro-4H-pyrazolo[1,5-a]pyrazine-5-carboxamide] was 26 nM; that for `C[C@H]1Cn2ncc(N3CC(c4cncs4)CC3=O)c2CN1C(=O)Nc1cc(F)c(F)c(F)c1` (stereo partly drawn) [Example 290, (6S)-6-methyl-3-(2-oxo-4-thiazol-5-yl-pyrrolidin-1-yl)-N-(3,4,5-trifluorophenyl)-6,7-dihydro-4H-pyrazolo[1,5-a]pyrazine-5-carboxamide] was 11 nM; that for `C[C@H]1Cn2ncc(N3CC(c4nccs4)CC3=O)c2CN1C(=O)Nc1cc(F)c(F)c(F)c1` (stereo partly drawn) [Example 291, (6S)-6-methyl-3-(2-oxo-4-thiazol-2-yl-pyrrolidin-1-yl)-N-(3,4,5-trifluorophenyl)-6,7-dihydro-4H-pyrazolo[1,5-a]pyrazine-5-carboxamide] was 7 nM. Then `C[C@H]1Cn2ncc(N3CCCOC3=O)c2CN1C(=O)Nc1cc(F)c(F)c(F)c1` [Example 292, (6S)-6-methyl-3-(2-oxo-1,3-oxazinan-3-yl)-N-(3,4,5-trifluorophenyl)-6,7-dihydro-4H-pyrazolo[1,5-a]pyrazine-5-carboxamide], with 48 nM.
